Results from paper PMC9430380, “Oridonin Attenuates Burkholderia cenocepacia Virulence by Suppressing Quorum-Sensing Signaling” (Microbiology Spectrum, 2022).

How the values were obtained:
[1] = molecular target: T1, CepR (Burkholderia cenocepacia, UniProt B4EMD0); assay: ITC with purified protein (one-site model); EMSA shows inhibited binding to bclACB promoter
T1 construct: HIS-CepR fusion protein (pDBHT2), cleaved with TEV protease

[2] = molecular target: T2, RqpR; assay: ITC with purified protein (one-site model); EMSA shows inhibited binding to rpfFBC and cepI promoters; parameters: species or system Burkholderia cenocepacia
T2 construct: HIS-RqpR fusion protein (pDBHT2), cleaved with TEV protease

T1 sequence (B4EMD0 entry or part of it): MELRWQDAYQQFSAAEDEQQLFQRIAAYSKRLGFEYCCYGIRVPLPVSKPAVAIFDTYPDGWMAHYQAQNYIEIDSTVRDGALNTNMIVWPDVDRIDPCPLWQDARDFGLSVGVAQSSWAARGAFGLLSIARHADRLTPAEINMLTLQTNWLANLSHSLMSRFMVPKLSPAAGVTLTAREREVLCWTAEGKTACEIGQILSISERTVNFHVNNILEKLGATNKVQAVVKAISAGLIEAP

SMILES: C=C1C(=O)[C@]23[C@H](O)[C@H]1CC[C@H]2[C@@]12CO[C@]3(O)[C@@H](O)[C@@H]1C(C)(C)CC[C@@H]2O [oridonin]
- Kd [1]: 13.6 ± 0.826 µM
- Kd [2]: 8.28 ± 0.895 µM
